According to US20090215804A1, “FUMARATE OF 4- [[4- [[4- (2-CYANOETHENYL) -2,6-DIMETHYLPHENYL)AMINO] -2-PYRIMIDINYL]AMINO]BENZONITRILE” (priority 2004, published 2009):
Values after ≈ are worked out from the molar mass of the structure shown. Read-outs that look alike come from different tables or passages of the source.

Columns and labels:
[1] = Chemical stability: storage at different humidity and temperature, HPLC for percentage of impurities; format: physicochemical
Method: Compound (I-a) was stored under different conditions of humidity and temperature. After storage, the salt was analyzed by High Performance Liquid Chromatography (HPLC) for percentage of impurities.

Solubility data = format: physicochemical
Source text: Table 1 lists solubility data of free base (E) 4-[[4-[[4-(2-cyanoethenyl)-2,6-dimethylphenyl]amino]-2-pyrimidinyl]amino]benzonitrile and of the compound of formula (I-a).

BCS classification = format: physicochemical
Source text: A scientific framework for classifying drug substances based on their aqueous solubility and intestinal permeability is the Biopharmaceutics Classification System or BCS. […] Free base and fumarate salt may be classified as BCS class 2 compounds.

[2] = Physical stability of the crystal structure after storage, infrared spectroscopy; format: physicochemical; details: six weeks storage, conditions of Table 2, infrared spectroscopy
Method: The stability of the crystal structure of the compound of formula (I-a) was studied after storage for a period of six weeks under different conditions of humidity and temperature. The same conditions as described in Table 2 were applied. After storage the compound was analyzed with infrared spectroscopy.

Hygroscopicity = format: physicochemical
HIV = details: wild type of HIV as well as drug and multi drug resistant strains of HIV; cited from earlier work

Cc1cc(/C=C/C#N)cc(C)c1Nc1ccnc(Nc2ccc(C#N)cc2)n1 [Compound of formula (I-a)]
Sum of impurities % ([1]; 40° C./75% RH, 4 weeks): 0.62 %, w/w | Sum of impurities % ([1]; 40° C./75% RH, 8 weeks): 0.61 %, w/w | Sum of impurities % ([1]; 50° C./air, 4 weeks): 0.62 %, w/w | Sum of impurities % ([1]; 50° C./air, 8 weeks): 0.61 %, w/w | Sum of impurities % ([1]; RT/56% RH, 4 weeks): 0.58 %, w/w | Sum of impurities % ([1]; RT/56% RH, 8 weeks): 0.64 %, w/w | Sum of impurities % ([1]; RT/75% RH, 4 weeks): 0.59 %, w/w | Sum of impurities % ([1]; RT/75% RH, 8 weeks): 0.65 %, w/w | Sum of impurities % ([1]; RT/<5% RH, 4 weeks): 0.61 %, w/w | Sum of impurities % ([1]; RT/<5% RH, 8 weeks): 0.62 %, w/w | Sum of impurities % ([1]; Reference, 1 week): 0.58 %, w/w | chemical stability (in words) ([1]; storage conditions of Table 2): chemically stable | Concentration in mg/ml, 0.01 N HCl (Solubility data; solubility in 0.01 N HCl): 0.013 mg/mL | solubility (Solubility data; water, solubility in water, read-out: Concentration in mg/ml, Water): 0.0009 mg/mL | solubility in water and in HCl (in words) (Solubility data; water): poor solubility | BCS class (BCS classification): BCS class 2 | stability of the crystal structure [2]: No changes in crystal structure were observed | hygroscopicity (Hygroscopicity): not hygroscopic

Cc1cc(/C=C/C#N)cc(C)c1Nc1ccnc(Nc2ccc(C#N)cc2)n1 [Free base (E-isomer), (E) 4-[[4-[[4-(2-cyanoethenyl)-2,6-dimethylphenyl]amino]-2-pyrimidinyl]amino]benzonitrile]
solubility (Solubility data; 0.01 N HCl, simulated gastric fluid, solubility in 0.01 N HCl, read-out: Concentration in mg/ml, 0.01 N HCl): 0.019 mg/mL (≈ 51.9 µM) | Concentration in mg/ml, PEG 400 (Solubility data; solubility in PEG 400): 40 mg/mL | Concentration in mg/ml, Water (Solubility data; solubility in water): 0.00002 mg/mL | solubility in water and in HCl (in words) (Solubility data; water): poor solubility | BCS class (BCS classification): BCS class 2

Cc1cc(C=CC#N)cc(C)c1Nc1ccnc(Nc2ccc(C#N)cc2)n1 [4-[[4-[[4-(2-cyanoethenyl)-2,6-dimethylphenyl]amino]-2-pyrimidinyl]amino]-benzonitrile]
HIV replication inhibiting activity (HIV): excellent
